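Compound exposure: 48 hours, 5 concentrations, 96-well plates. GI50 marks 50% less growth.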 Active and inactive are the calls of the source. Cut-off read from the data, not from the text of the source: active = GI50 up to about 1.1 µM and inactive = higher. Where a SMILES comes first, the peptide text is derived from it. The star is where a group is joined. Boc = CC(C)(C)OC(=O)*; OSu = O=C1CCC(=O)N1O*
Key:
Test in all cases: NCI anticancer screen, dose series, 48 h
[1] = tested on: ACHN
[2] = tested on: CCRF-CEM
[3] = tested on: HT-29
[4] = tested on: M14
[5] = tested on: MDA-MB-231
[6] = tested on: NCI-H23
[7] = tested on: OVCAR-3
[8] = tested on: OVCAR-4
[9] = tested on: OVCAR-5
[10] = tested on: SF-295
[11] = tested on: SK-MEL-2
[12] = tested on: SK-MEL-5
[13] = tested on: T47D
[14] = tested on: TK-10
[15] = tested on: HOP-92
[16] = tested on: Hs-578T
[17] = tested on: MCF7
[18] = tested on: OVCAR-8
[19] = tested on: A498

Row | Compound | GI50 [1] | GI50 [2] | GI50 [3] | GI50 [4] | GI50 [5] | GI50 [6] | GI50 [7] | GI50 [8] | GI50 [9] | GI50 [10] | GI50 [11] | GI50 [12] | GI50 [13] | GI50 [14] | GI50 [15] | GI50 [16] | GI50 [17] | GI50 [18] | GI50 [19]
1 | O=CC12CCCN1CCC2 | > 100 µM (inactive) | > 100 µM (inactive) | > 100 µM (inactive) | > 100 µM (inactive) | > 100 µM (inactive) | > 100 µM (inactive) | > 100 µM (inactive) | > 100 µM (inactive) | > 100 µM (inactive) | > 100 µM (inactive) | > 100 µM (inactive) | > 100 µM (inactive) | > 100 µM (inactive) | > 100 µM (inactive) |  |  |  |  | 
2 | Clc1ccc(C2=NCON=C2c2ccc(Cl)cc2)cc1 | 19 µM (inactive) | 24.3 µM (inactive) | 13.6 µM (inactive) |  | 18.1 µM (inactive) | 16.8 µM (inactive) | 15.8 µM (inactive) | 27.4 µM (inactive) | 20.1 µM (inactive) | 16.6 µM (inactive) | 19.9 µM (inactive) | 16.6 µM (inactive) | 0.71 µM (active) | 23.9 µM (inactive) | 18.4 µM (inactive) | 13.8 µM (inactive) | 25.6 µM (inactive) | 25.6 µM (inactive) | 
3 | CCCC(CCC(=O)O)(CCC(=O)O)[N+](=O)[O-] | > 100 µM (inactive) |  | > 100 µM (inactive) | > 100 µM (inactive) | > 100 µM (inactive) | > 100 µM (inactive) |  |  | > 100 µM (inactive) | > 100 µM (inactive) | > 100 µM (inactive) | > 100 µM (inactive) | > 100 µM (inactive) | > 100 µM (inactive) | > 100 µM (inactive) | > 100 µM (inactive) | > 100 µM (inactive) | > 100 µM (inactive) | 
4 | COc1cc(S(=O)(=O)Nc2ccc(-c3csc(N4C(=O)C(C)SC4c4ccccc4)n3)cc2)ccc1Cl (stereo not drawn) | > 100 µM (inactive) | 40 µM (inactive) | 11.8 µM (inactive) | > 100 µM (inactive) |  | 51.4 µM (inactive) | > 100 µM (inactive) | 39.6 µM (inactive) | > 100 µM (inactive) |  | 0.979 µM (active) | 19.5 µM (inactive) | 15.2 µM (inactive) |  | 31.9 µM (inactive) | 0.794 µM (active) | 17.9 µM (inactive) | > 100 µM (inactive) | 58.6 µM (inactive)
5 | O=c1nc2ccc3sc4ccccc4c(=O)c3n2c(=O)[nH]1 | > 100 µM (inactive) | > 100 µM (inactive) | > 100 µM (inactive) |  | > 100 µM (inactive) | > 100 µM (inactive) | > 100 µM (inactive) | > 100 µM (inactive) | > 100 µM (inactive) | > 100 µM (inactive) |  | > 100 µM (inactive) |  | 66.7 µM (inactive) |  | 19.4 µM (inactive) | > 100 µM (inactive) | > 100 µM (inactive) | > 100 µM (inactive)
6 | CNc1ncccc1Nc1cc(=O)n2c3cccnc3n(C)c2c1 | > 100 µM (inactive) | > 100 µM (inactive) | 58.3 µM (inactive) | > 100 µM (inactive) | 13.7 µM (inactive) | 74.6 µM (inactive) | > 100 µM (inactive) | 38.9 µM (inactive) | > 100 µM (inactive) | 93.5 µM (inactive) |  | > 100 µM (inactive) | > 100 µM (inactive) | 53.2 µM (inactive) |  |  | > 100 µM (inactive) | > 100 µM (inactive) | 89.7 µM (inactive)
7 | CC(NC(=O)C(NC(=O)OC(C)(C)C)C(C)C)C(=O)NCC(=O)ON1C(=O)CCC1=O (stereo not drawn) (Boc-Val-Ala-Gly-OSu; configuration not given here) | > 100 µM (inactive) |  | > 100 µM (inactive) | 88.1 µM (inactive) | > 100 µM (inactive) | > 100 µM (inactive) | > 100 µM (inactive) |  | > 100 µM (inactive) | > 100 µM (inactive) | > 100 µM (inactive) | > 100 µM (inactive) | > 100 µM (inactive) | > 100 µM (inactive) | 22.8 µM (inactive) | > 10 µM (inactive) | > 100 µM (inactive) | > 100 µM (inactive) | 
8 | COC(=O)C(NC(=O)c1ccccc1)c1ccco1 (stereo not drawn) | > 100 µM (inactive) | > 100 µM (inactive) | > 100 µM (inactive) | > 100 µM (inactive) |  | > 100 µM (inactive) | > 100 µM (inactive) |  | > 100 µM (inactive) | > 100 µM (inactive) |  | > 100 µM (inactive) | > 100 µM (inactive) | > 100 µM (inactive) | > 100 µM (inactive) | > 100 µM (inactive) | > 100 µM (inactive) | > 100 µM (inactive) | > 100 µM (inactive)
9 | CN1CCc2cc(N)cc3c2C1Cc1ccc(O)c(O)c1-3 (stereo not drawn) | 25.8 µM (inactive) | 3.75 µM (inactive) | 34.4 µM (inactive) | 34 µM (inactive) | 75 µM (inactive) | 46.8 µM (inactive) | 27.4 µM (inactive) | 31.6 µM (inactive) | 85.1 µM (inactive) | 39.8 µM (inactive) | 40.9 µM (inactive) | 20.4 µM (inactive) | 61.8 µM (inactive) | 24.7 µM (inactive) | 51.2 µM (inactive) | 53.5 µM (inactive) |  | 30.7 µM (inactive) | 57.7 µM (inactive)
10 | Nc1ccccc1OCc1cc(=O)c(OCc2ccccc2)co1 | 8.99 µM (inactive) | > 100 µM (inactive) | 5.05 µM (inactive) | 17.7 µM (inactive) | 19.9 µM (inactive) | 39.6 µM (inactive) | 22.9 µM (inactive) | 62.1 µM (inactive) | 37.4 µM (inactive) | 10.1 µM (inactive) |  | 18.8 µM (inactive) | 24.2 µM (inactive) | 18.8 µM (inactive) | 0.202 µM (active) |  | 14.7 µM (inactive) | > 100 µM (inactive) | 
11 | Fc1cc(-c2cc(-c3ccc4c(c3)OCO4)n[nH]2)c(Cl)cc1Cl | 1.95 µM (inactive) | 11.9 µM (inactive) | 4 µM (inactive) | 4.75 µM (inactive) | 1.75 µM (inactive) | 2.47 µM (inactive) | 2.21 µM (inactive) | 1.91 µM (inactive) | 3.28 µM (inactive) | 3.05 µM (inactive) | 15.8 µM (inactive) | 6.38 µM (inactive) | 2.2 µM (inactive) | 3 µM (inactive) | 2.26 µM (inactive) | 3.99 µM (inactive) |  | 1.85 µM (inactive) | 
12 | C[N+]1(C)CCC(C#N)(c2ccccc2)CC1 | > 100 µM (inactive) | 0.65 µM (active) | > 100 µM (inactive) | > 100 µM (inactive) |  | > 100 µM (inactive) |  | > 100 µM (inactive) | > 100 µM (inactive) | > 100 µM (inactive) |  | > 100 µM (inactive) | > 100 µM (inactive) | > 100 µM (inactive) | > 100 µM (inactive) | > 100 µM (inactive) | > 100 µM (inactive) | > 100 µM (inactive) | > 100 µM (inactive)
13 | CC(=N/NC(N)=S)/C(C)=N/NC(N)=S | > 100 µM (inactive) | > 100 µM (inactive) | > 100 µM (inactive) | > 100 µM (inactive) | > 100 µM (inactive) | > 100 µM (inactive) | > 100 µM (inactive) |  | > 100 µM (inactive) |  | > 100 µM (inactive) | > 100 µM (inactive) |  | > 100 µM (inactive) |  | > 100 µM (inactive) | > 100 µM (inactive) | > 100 µM (inactive) | 
14 | CN1CCN(c2n[nH]c(=O)c3c2nnn3Cc2ccccc2)CC1 | > 100 µM (inactive) | > 100 µM (inactive) | 38 µM (inactive) | > 100 µM (inactive) | > 100 µM (inactive) | > 100 µM (inactive) | > 100 µM (inactive) | > 100 µM (inactive) |  | > 100 µM (inactive) | > 100 µM (inactive) | > 100 µM (inactive) |  | > 100 µM (inactive) | 17.2 µM (inactive) |  | > 100 µM (inactive) | > 100 µM (inactive) | 
15 | COc1ccccc1-c1cc(=O)c2ccccc2n1C1CC1 | 2.2 µM (inactive) | 4.83 µM (inactive) | 0.0782 µM (active) | 4.4 µM (inactive) | 3.76 µM (inactive) | 4.99 µM (inactive) | 1.75 µM (inactive) |  | 2.72 µM (inactive) | 2 µM (inactive) | 2.69 µM (inactive) | 4.52 µM (inactive) | 2.37 µM (inactive) |  | 1.78 µM (inactive) | 5.3 µM (inactive) | 1.98 µM (inactive) | 3.79 µM (inactive) | 
16 | COC1=CC(=O)C2=C(C1=O)[C@H]1CC[C@]3(C)[C@@H](OC(C)=O)CC[C@H]3[C@@H]1CC2 | 35.1 µM (inactive) | 25.4 µM (inactive) | 20.8 µM (inactive) | > 100 µM (inactive) | 17 µM (inactive) | 40.3 µM (inactive) | > 100 µM (inactive) | 16.5 µM (inactive) | 37.8 µM (inactive) | 92.3 µM (inactive) | 37.5 µM (inactive) | 21.4 µM (inactive) | 23.2 µM (inactive) | > 100 µM (inactive) | 7.93 µM (inactive) | 38.3 µM (inactive) |  | 23.9 µM (inactive) | > 100 µM (inactive)
17 | O=C(/C=C/c1ccc(Cl)c(Cl)c1)CCN1CCN(CCC(=O)/C=C/c2ccc(Cl)c(Cl)c2)CC1 | 16.9 µM (inactive) | 6.59 µM (inactive) | 17.7 µM (inactive) | 17.8 µM (inactive) | 25 µM (inactive) | > 10 µM (inactive) | 23.6 µM (inactive) | 15.7 µM (inactive) | 19.2 µM (inactive) | 19.7 µM (inactive) | 26.7 µM (inactive) | 19.3 µM (inactive) | 24.8 µM (inactive) | 18 µM (inactive) | 22.8 µM (inactive) |  | 4.04 µM (inactive) | 33.7 µM (inactive) | 34.9 µM (inactive)
